From article PMC2688463 (Journal of medicinal chemistry, 2008)
Blank lines part the entries; values can stand above or below the compound they belong to.

Experiments:
[1] = test system: MDA-MB-231 breast cancer cell line; assay: Cell growth assay; type: cell-based, human
[2] = target: recombinant human XIAP BIR3 protein (Homo sapiens, UniProt P98170); assay: Cell-free caspase-9 functional assay; type: biochemical; details: at concentrations as high as 100 μM
[3] = test system: SK-OV-3 ovarian cancer cell line; assay: Cell growth assay; type: cell-based, human
MDA-MB-231 cell line = assay: Apoptosis assay; type: cell-based, human; details: 100 nM, 48 hours

Chain of recombinant human XIAP BIR3 protein (P98170 241-356): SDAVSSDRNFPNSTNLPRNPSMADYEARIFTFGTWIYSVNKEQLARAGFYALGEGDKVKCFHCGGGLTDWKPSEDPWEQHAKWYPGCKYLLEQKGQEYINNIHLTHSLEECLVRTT

- restoration of caspase-9 activity [2]: no significant effect
Compound: C[C@H](O)C(=O)N[C@H]1CCCC[C@H]2CC[C@@H](C(=O)NC(c3ccccc3)c3ccccc3)N2C1=O [Compound 24]
- times less potent than compound 25 in cell growth inhibition [1]: > 30 times
- times less potent than compound 25 in cell growth inhibition [3]: > 30 times

Compound: CC[C@H](N)C(=O)N[C@H]1CCCC[C@H]2CC[C@@H](C(=O)NC(c3ccccc3)c3ccccc3)N2C1=O [Compound 17, (3S,6S,11S)-6-((S)-2-Amino-butyrylamino)-5-oxo-decahydro-pyrrolo[1,2-α]azocine-3-carboxylic acid benzhydryl-amide]
- cellular activity (cell growth inhibition) [1]: weak cellular activity
- cellular activity (cell growth inhibition) [3]: weak cellular activity

Compound: CN[C@@H](C)C(=O)N[C@H]1CCCC[C@H]2CC[C@@H](C(=O)NC(c3ccccc3)c3ccccc3)N2C1=O [Compound 20, (3S,6S,11S)-6-((S)-2-Methylamino-propionylamino)-5-oxo-decahydro-pyrrolo[1,2-α]azocine-3-carboxylic acid benzhydryl-amide]
- induction of apoptosis (MDA-MB-231 cell line): robust apoptosis

Compound: CC[C@H](NC)C(=O)N[C@H]1CCCC[C@H]2CC[C@@H](C(=O)NC(c3ccccc3)c3ccccc3)N2C1=O [Compound 21, (3S,6S,11S)-6-((S)-2-Methylamino-butyrylamino)-5-oxo-decahydro-pyrrolo[1,2-α]azocine-3-carboxylic acid benzhydryl-amide]
- induction of apoptosis (MDA-MB-231 cell line): robust apoptosis
